Patent US20210284691A1, “CBX8 CHROMDOMAIN INHIBITORS AND THE USES THEREOF” (Purdue Research Foundation, priority 2019, published 2021)
Where two headings read alike, the source gives them in different places. Square brackets hold non-standard residues; d marks the D form. Peptide text beside a SMILES is read from it. * marks the point of attachment. ξ: configuration not given here. Isoxazole3carbonyl(5-Me) = Cc1cc(C(=O)*)no1; Tyr(3-Cl) = N[C@@H](Cc1ccc(O)c(Cl)c1)C(=O)O; Benzoyl(4-OPh) = O=C(c1ccc(Oc2ccccc2)cc1)*; Benzoyl(4-Ph) = O=C(c1ccc(-c2ccccc2)cc1)*; Lys(Me3) = C[N+](C)(C)CCCC[C@H](N)C(=O)O; Gly(3-thienyl) = N[C@H](C(=O)O)c1ccsc1; Lys(Et2) = CCN(CC)CCCC[C@H](N)C(=O)O; Gly(cPent) = N[C@H](C(=O)O)C1CCCC1; Gly(cPr) = N[C@H](C(=O)O)C1CC1; ξIle = CC[C@H](C)C(N)C(=O)O; NH(propargyl) = C#CCN*

Columns and labels:
[1] = tested on: H3K27me3, AR, ENO2, N-Myc, CBX2 protein levels; assay: Western blotting of protein expression in VCaP_NED cells; format: cell-based
Text: FIG. 12A). Neuroendocrine differentiation (NED) of prostate cancer induced by androgen deprivation. Representative pictures of LNCaP cells treated with normal media or charcoal-stripped serum (CSS) media for 6 days to induce neuroendocrine differentiation (LNCaP_NED). FIG. 12B). Transcriptional fold changes of KLK3/TMPRSS2/ENO2/CHGA were quantified normalized to control gene YWHAZ upon CSS media treatment for 6 or 9 days. FIG. 12C). Western blotting of CBX paralogs in LNCaP and LNCaP_NED cells generated from 14-day CSS treatment. FIG. 12D). Cell proliferation of LNCaP_NED following 5 days incubation with 2 or 10 μM SW2_152F. DMSO was used as negative control. FIG. 12E). LNCaP_NED cells were treated with 10 μM SW2_152F for 24 h-96 h. Cell morphology pictures were captured starting from 24 h. Average cell size were plotted at 24 h or 48 h for both DMSO group and compound treated group. FIG. 12F). LNCaP_NED cells were treated with 10 μM or 50 μM SW2_152F for 48 hours. Transcriptional fold change of genes (KLK3/TMPRSS2/AR/CBX2) were normalized to YWHAZ in LNCaP_NED cells with SW2_152F treatment or DMSO. FIG. 12G). LNCaP cells were treated with DMSO. LNCaP_NED cells were treated with DMSO, 10 μM GSK343 or 10 μM SW2_152F for 48 hours. Whole cell lysates were extracted for western blotting. FIG. 12H). LNCaP_NED cells were treated with DMSO or 10 μM SW2_152F for 4 hours before harvest. Binding of H3K27me3 and CBX2 at specific genomic sites (KLK3/TMPRSS2, e: enhancer, p: promoter) were evaluated using chromatin immunoprecipitation-qPCR. For all experiments in the figure, error bars represent SEM n=3 biological replicates, p-values were calculated using two-tailed Student's t-test, *=p<0.05, **=p<0.01, ***=p<0.001, ****=p<0.0001.
In another androgen-sensitive prostate cancer cell line, VCaP, 6 days of androgen deprivation decreases AR protein expression and increases ENO2, N-Myc, H3K27me3 and CBX2 protein expression (FIG. 12G), similar to published findings (Y. Zhang, et al., 2018). Using this NED cell line (VCaP_NED), we tested how addition of EZH2 inhibitor GSK343 or CBX2 inhibitor SW2_152F affects protein expression changes during NED.

CBX7 ChD = target: T1, CBX7 ChD (Homo sapiens, UniProt O95931); assay: Competitive fluorescence polarization (FP) assay; format: binding; conditions: average of quadruplicates ± s.d.
T1 construct: CBX chromodomain constructs; host or cells: E. coli BL21 CodonPlus RIL
T1 sequence (O95931 11-69 limits assumed): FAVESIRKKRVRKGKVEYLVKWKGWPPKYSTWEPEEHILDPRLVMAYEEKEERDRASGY
Procedure: (§1) CBX chromodomain constructs (addgene plasmid #25158 (CBX2), #25237 (CBX4), #25296 (CBX6), #25241 (CBX7) and #62514 (CBX8, provided by Cheryl Arrowsmith), Kaustov et al.) were transformed into chemically competent BL21 CodonPlus RIL E. coli cells (Stratagene, La Jolla, Calif.) as N-terminal His6-tagged proteins. Bacterial growth was completed at 37° C. in LB media to OD600=2.0, followed by reducing the temperature to 16° C. over 30-60 min and induced with 1 mM IPTG for 16 h. Cells were collected by centrifugation at 6000 rpm for 20 min and resuspended in ChD binding buffer (20 mM Tris, pH 8, 150 mM NaCl, 0.01% Tween-20, 20 mM imidazole) with 1.0 mM PMSF. Bacteria pellets were stored at −80° C. until needed. Pellets were thawed on ice for 10 min in ChD binding buffer, and shaked at 4° C. supplemented with 100 μg/mL lysozyme, 1 mg/mL CHAPS and 1 mM PMSF, for 30 min. Cells were subsequently lysed by sonication (15 W, 30 s on, followed by 30 s off, twice, followed by 20 W for 1 min). The solubilized fraction was collected by centrifugation at 15000 rpm for 40 min at 4° C. Meanwhile, Ni-NTA Agarose resin (QIAGEN, Venlo, Netherlands) was washed with H2O and equilibrated with ChD binding buffer. The soluble fraction was incubated with the prewashed Ni-NTA agarose resin at 4° C. for 2 h. The resin was then washed 3× with ChD purification buffer (20 mM Tris, pH 8, 150 mM NaCl, 0.01% Tween-20, 1 mM PMSF). Proteins were eluted by the addition of 0.5 M imidazole to ChD purification buffer. The elution was diluted with 30% glycerol, flash frozen, and stored at −80° C. until needed. Protein purity was assessed by SDS-PAGE and concentration was determined by the Pierce 660 kit (Thermo Scientific).
(§2) Competitive Fluorescence polarization (FP) assay of PSL hits against CBX6 ChD, CBX7 ChD and CBX8 ChD. FP was measured by titration of CBX ChDs to a FITC-labelled probe as previously reported (Simhadri et al.). Binding and competition FP assays were performed in black 384-well plates with optical bottoms. The protein concentrations used were selected based on the reported relative affinity of the CBX ChD protein for the FITC probes. The FITC-labeled probe was kept constant at 100 nM with 1 μM CBX6, 0.4 μM CBX7 or 4 μM CBX8 with varying amounts of peptide by 2-fold series dilutions, from 500 μM as highest peptide concentration to 0.488 μM as the lowest. Assays were performed for each peptide in four replicates.

CBX6 ChD = target: T2, CBX6 ChD (Homo sapiens, UniProt O95503); assay: Competitive fluorescence polarization (FP) assay; format: binding; conditions: average of quadruplicates ± s.d.
T2 construct: CBX chromodomain constructs; host or cells: E. coli BL21 CodonPlus RIL
T2 sequence (O95503 11-69 limits assumed): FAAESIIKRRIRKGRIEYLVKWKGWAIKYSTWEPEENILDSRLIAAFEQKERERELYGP
Procedure: as §1, §2

CBX8 ChD [2] = target: T3, CBX8 ChD (Homo sapiens, UniProt Q9HC52); assay: Competitive fluorescence polarization (FP) assay; format: binding
T3 construct: CBX chromodomain constructs; host or cells: E. coli BL21 CodonPlus RIL
T3 sequence (Q9HC52 11-69 limits assumed): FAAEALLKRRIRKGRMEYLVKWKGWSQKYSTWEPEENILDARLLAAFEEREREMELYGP
Procedure: as §1, §2

CBX8 ChD [3] = target: T3, CBX8 ChD; assay: Direct fluorescence polarization (FP) binding assay
Procedure: as §1, with “Bacterial” for “CBX chromodomain constructs (addgene plasmid #25158 (CBX2), #25237 (CBX4), #25296 (CBX6), #25241 (CBX7) and #62514 (CBX8, provided by Cheryl Arrowsmith), Kaustov et al.) were transformed into chemically competent BL21 CodonPlus RIL E. coli cells (Stratagene, La Jolla, Calif.) as N-terminal His6-tagged proteins. Bacterial”
Direct fluorescence polarization (FP) binding assay of PSL hits against PcG CBX ChDs. FP assays were conducted as above with slight modifications. Alkyne peptides described above were conjugated with a fluorescein group(5-/6-FAM) through copper catalyzed click reaction as previously described. The FAM-labeled peptide was kept constant at 100 nM. The CBX ChD proteins were titrated by 2-fold series dilutions in the assays. The highest protein concentrations, at which FAM-peptide was completely bound, used for each CBX in the direct binding assays depends on the binding affinity of the peptides. Assays were performed for each peptide in four replicates.

[4] = competitive FP, average of quadruplicates ± s.d., read-out: IC50 (μM) CBX8

Procedure for THP1 cells: Cells were grown for 72 h before trypsinized and counted. Cell suspension was homogenized by gentle pipetting and counted using Countess II (#AMQAF1000, Life Technologies). […] At day 6, 25 percent of cells in each well were split and transferred to new wells to avoid over-confluency, and media was replaced with fresh compounds in new media. The cell viability assay was extended to 12 days, with cell counting and fresh compound replenishment at day 3, 6, 9.
Luminescence was normalized to DMSO-treated groups. The IC50 was calculated using the “log[inhibitor] vs. the normalized response-variable slope” equation in GraphPad Prism 7.

## CCCc1cc(C)[nH]c(=O)c1CNC(=O)c1cc(-c2ccnc(N3CCN(C)CC3)c2)cc2c1cnn2C(C)C [GSK343]
[1]
  CBX2 protein expression: decrease in CBX2 expression
[1]; 10 μM, 48 hours
  H3K27me3 levels: reduces H3K27me3 levels
[1]; compared to DMSO
  AR, ENO2 and N-Myc expression: increase AR and decrease ENO2 and N-Myc expression

## C#CCNC(=O)[C@H](CO)NC(=O)[C@H](CCCCN(CC)CC)NC(=O)[C@@H](NC(=O)[C@@H](NC(=O)c1ccc(Oc2ccccc2)cc1)c1ccsc1)[C@@H](C)CC [SW2-110B] ({Benzoyl(4-OPh)}-[Gly(3-thienyl)]I[Lys(Et2)]S-{NH(propargyl)})
CBX7 ChD
  IC50 (μM) CBX7: ND (Aggreg.)
CBX6 ChD
  IC50 (μM) CBX6: ND (Aggreg.)

## CC[C@H](C)C(NC(=O)[C@@H](NC(=O)c1ccc(-c2ccccc2)cc1)C1CCCC1)C(=O)N[C@@H](CCCC[N+](C)(C)C)C(=O)N[C@@H](CO)C(N)=O (stereo partly drawn) [SW2_89] ({Benzoyl(4-Ph)}-[Gly(cPent)][ξIle][Lys(Me3)]S-NH2)
CBX6 ChD
  IC50 (μM) CBX6: ND (Aggreg.)

## CC[C@H](C)C(NC(=O)[C@@H](NC(=O)[C@H](Cc1ccc(O)c(Cl)c1)NC(=O)c1cc(C)on1)C1CC1)C(=O)N[C@@H](CCCC[N+](C)(C)C)C(=O)N[C@@H](CO)C(N)=O (stereo partly drawn) [SW2_90] ({Isoxazole3carbonyl(5-Me)}-[Tyr(3-Cl)][Gly(cPr)][ξIle][Lys(Me3)]S-NH2)
CBX7 ChD
  IC50: 0.82 ± 0.12 µM

## CC[C@H](C)C(NC(=O)[C@@H](NC(=O)c1ccc(-c2ccccc2)cc1)C1CC1)C(=O)N[C@@H](CCCC[N+](C)(C)C)C(=O)N[C@@H](CO)C(N)=O (stereo partly drawn) [SW2_101A] ({Benzoyl(4-Ph)}-[Gly(cPr)][ξIle][Lys(Me3)]S-NH2)
CBX8 ChD [2]; [4]
  IC50: 40 ± 8.3 µM

## CC[C@H](C)C(NC(=O)[C@@H](NC(=O)c1ccc(Oc2ccccc2)cc1)C1CCCC1)C(=O)N[C@@H](CCCC[N+](C)(C)C)C(=O)N[C@@H](CO)C(N)=O (stereo partly drawn) [SW2_101B] ({Benzoyl(4-OPh)}-[Gly(cPent)][ξIle][Lys(Me3)]S-NH2)
CBX7 ChD
  IC50: > 100 µM
CBX6 ChD
  IC50: > 100 µM

## CC[C@H](C)C(NC(=O)[C@@H](NC(=O)c1ccc(Oc2ccccc2)cc1)C1CC1)C(=O)N[C@@H](CCCC[N+](C)(C)C)C(=O)N[C@@H](CO)C(N)=O (stereo partly drawn) [SW2_101F] ({Benzoyl(4-OPh)}-[Gly(cPr)][ξIle][Lys(Me3)]S-NH2)
CBX8 ChD [2]; [4]
  IC50: 4 ± 1.1 µM
CBX6 ChD
  IC50: > 100 µM

## C#CCNC(=O)[C@H](CO)NC(=O)[C@H](CCCCN(CC)CC)NC(=O)C(NC(=O)[C@@H](NC(=O)c1ccc(-c2ccccc2)cc1)c1ccsc1)[C@@H](C)CC (stereo partly drawn) [SW2_104B] ({Benzoyl(4-Ph)}-[Gly(3-thienyl)][ξIle][Lys(Et2)]S-{NH(propargyl)})
CBX8 ChD [2]; [4]
  IC50: > 15 µM
CBX7 ChD
  IC50 (μM) CBX7: ND (Aggreg.)
CBX6 ChD
  IC50 (μM) CBX6: ND (Aggreg.)

## CC[C@H](C)[C@H](NC(=O)[C@@H](NC(=O)c1ccc(Oc2ccccc2)cc1)C1CCCC1)C(=O)N[C@@H](CCCCN(CC)CC)C(=O)N[C@@H](CO)C(=O)NCc1cn(CCCCNC(=O)c2ccc3c(c2)C2(OC3=O)c3ccc(O)cc3Oc3cc(O)ccc32)nn1 [SW2_110A-FL]
CBX8 ChD [3]; from Kd values
  selectivity for CBX8 ChD over CBX7 ChD: 20 fold
  selectivity for CBX8 over CBX2: 5 fold

## C#CCNC(=O)[C@H](CO)NC(=O)[C@H](CCCCN(CC)CC)NC(=O)C(NC(=O)[C@@H](NC(=O)c1ccc(Oc2ccccc2)cc1)C1CCCC1)[C@@H](C)CC (stereo partly drawn) [SW2_110A] ({Benzoyl(4-OPh)}-[Gly(cPent)][ξIle][Lys(Et2)]S-{NH(propargyl)})
THP1 cells; 100 μM, after 12 days of treatment
  inhibition of THP1 proliferation compared to DMSO: ~80%
THP1 cells; read-out: IC50 for growth inhibition of THP1 cells, 12-day treatment, CellTiter-Glo
  IC50: 25 ± 1.1 µM
CBX8 ChD [3]
  Kd: ~0.8 µM
  selectivity for CBX8 over all other CBX paralogs in vitro: ≥ 5 fold
CBX8 ChD [2]
  IC50: > 7 µM
CBX7 ChD
  IC50 (μM) CBX7: ND (Aggreg.)
CBX6 ChD
  IC50 (μM) CBX6: ND (Aggreg.)
